Measurements published in ChEMBL document CHEMBL4219148, “Discovery of a highly potent orally bioavailable imidazo-[1, 2-a]pyrazine Aurora inhibitor” (Bioorg Med Chem Lett, 2018).
Converted amounts (≈) assume the structure as drawn.

Assays:
[1] = Protein binding in human plasma; assay type: ADME, cell-free; settings: read-out: PPB (converted)
[2] = Half life in rat at 1 mg/kg, iv; assay type: ADME, organism-based; settings: in vivo
A2780 [3] = assay: Antitumor activity against human A2780 cells xenografted in nu/nu mouse assessed as tumor growth inhibition at 300 mg/kg, po bid; assay type: functional; settings: read-out: TGI
[4] = Clearance in mouse at 3 mg/kg, iv; assay type: ADME, organism-based; settings: in vivo
[5] = Half life in dog at 1 mg/kg, iv; assay type: ADME, organism-based, Canis lupus familiaris; settings: in vivo
[6] = AUC (0 to 48 hrs) in monkey at 1 mg/kg, iv; assay type: ADME, organism-based, Macaca mulatta; design: time < 48 hr, dose 1 mg/kg, route intravenous; settings: rhesus monkey, in vivo
[7] = Protein binding in mouse plasma; assay type: ADME, cell-free; settings: read-out: PPB (converted)
[8] = AUC (0 to 48 hrs) in dog at 1 mg/kg, iv; assay type: ADME, organism-based, Canis lupus familiaris; design: dose 1 mg/kg, time < 48 hr, route intravenous; settings: in vivo
[9] = Volume of distribution in monkey at 1 mg/kg, iv; assay type: ADME, organism-based, Macaca mulatta; settings: rhesus monkey, in vivo
[10] = Clearance in rat at 1 mg/kg, iv; assay type: ADME, organism-based; settings: in vivo
[11] = target: Ribosomal protein S6 kinase alpha-3 (Homo sapiens, UniProt P51812); assay: Inhibition of RSK2 (unknown origin)
[12] = Oral bioavailability in dog at 3 mg/kg; assay type: ADME, organism-based, Canis lupus familiaris; settings: in vivo
[13] = target: Testis-specific serine/threonine-protein kinase 2 (Homo sapiens, UniProt Q96PF2); assay: Inhibition of TSSK2 (unknown origin)
[14] = Volume of distribution in rat at 1 mg/kg, iv; assay type: ADME, organism-based; settings: in vivo
[15] = Oral bioavailability in monkey at 3 mg/kg; assay type: ADME, organism-based, Macaca mulatta; settings: rhesus monkey, in vivo
[16] = Oral bioavailability in mouse at 50 mg/kg; assay type: ADME, organism-based; settings: in vivo
[17] = Half life in mouse at 3 mg/kg, iv; assay type: ADME, organism-based; settings: in vivo
[18] = Oral bioavailability in rat at 3 mg/kg; assay type: ADME, organism-based; settings: in vivo
[19] = AUC (0 to 48 hrs) in dog at 3 mg/kg, po; assay type: ADME, organism-based, Canis lupus familiaris; design: dose 3 mg/kg, time < 48 hr, route oral; settings: in vivo
[20] = AUC (0 to 48 hrs) in rat at 3 mg/kg, po; assay type: ADME, organism-based; design: dose 3 mg/kg, time < 48 hr, route oral; settings: in vivo
[21] = target: Serine/threonine-protein kinase Nek2 (Homo sapiens, UniProt P51955); assay: Inhibition of NEK2 (unknown origin)
[22] = Clearance in monkey at 1 mg/kg, iv; assay type: ADME, organism-based, Macaca mulatta; settings: rhesus monkey, in vivo
[23] = AUC (0 to 24 hrs) in mouse at 50 mg/kg, po; assay type: ADME, organism-based; design: time < 24 hr, dose 50 mg/kg, route oral; settings: in vivo
Cytochrome P450 2C19 = Cytochrome P450 2C19 (Homo sapiens, UniProt P33261); assay: Inhibition of CYP2C19 in human liver microsomes; assay type: ADME
[24] = Kinetic solubility of the compound in sodium phosphate buffer/2% DMSO at pH 7.4 by static light scattering method; assay type: physicochemical; settings: read-out: Kinetic_solubility
[25] = AUC (0 to 6 hrs) in rat at 10 mg/kg, po; assay type: ADME, organism-based; design: time < 6 hr, dose 10 mg/kg, route oral; settings: in vivo
Aurora kinase A = target: T1, Aurora kinase A (Homo sapiens, UniProt O14965); assay: Binding affinity to Aurora A (unknown origin) after 45 mins by fluorescence-based thermal stability shift assay
T1 sequence (O14965 whole entry): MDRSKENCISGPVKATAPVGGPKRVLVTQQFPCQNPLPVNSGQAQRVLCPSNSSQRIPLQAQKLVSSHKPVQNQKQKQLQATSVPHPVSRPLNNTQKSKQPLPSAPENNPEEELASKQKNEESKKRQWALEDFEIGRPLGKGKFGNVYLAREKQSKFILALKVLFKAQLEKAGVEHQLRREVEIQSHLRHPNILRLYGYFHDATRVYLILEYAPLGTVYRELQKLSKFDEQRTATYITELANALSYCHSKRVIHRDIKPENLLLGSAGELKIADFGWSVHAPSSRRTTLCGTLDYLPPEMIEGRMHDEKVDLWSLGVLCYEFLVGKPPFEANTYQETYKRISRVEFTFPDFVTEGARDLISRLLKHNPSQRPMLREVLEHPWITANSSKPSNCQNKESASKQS

[26] = Volume of distribution in mouse at 3 mg/kg, iv; assay type: ADME, organism-based; settings: in vivo
Cytochrome P450 2C9 = Cytochrome P450 2C9 (Homo sapiens, UniProt P11712); assay: Inhibition of CYP2C9 in human liver microsomes; assay type: ADME
[27] = AUC (0 to 24 hrs) in mouse at 3 mg/kg, iv; assay type: ADME, organism-based; design: time < 24 hr, dose 3 mg/kg, route intravenous; settings: in vivo
Cytochrome P450 2D6 = Cytochrome P450 2D6 (Homo sapiens, UniProt P10635); assay: Inhibition of CYP2D6 in human liver microsomes; assay type: ADME
[28] = Half life in monkey at 1 mg/kg, iv; assay type: ADME, organism-based, Macaca mulatta; settings: rhesus monkey, in vivo
[29] = AUC (0 to 48 hrs) in rat at 1 mg/kg, iv; assay type: ADME, organism-based; design: time < 48 hr, dose 1 mg/kg, route intravenous; settings: in vivo
Aurora kinase B = Aurora kinase B (Homo sapiens, UniProt Q96GD4); assay: Binding affinity to Aurora B (unknown origin) after 45 mins by fluorescence-based thermal stability shift assay
[30] = AUC (0 to 48 hrs) in monkey at 10 mg/kg, po; assay type: ADME, organism-based, Macaca mulatta; design: time < 48 hr, dose 10 mg/kg, route oral; settings: rhesus monkey, in vivo
[31] = target: Interleukin-1 receptor-associated kinase 4 (Homo sapiens, UniProt Q9NWZ3); assay: Inhibition of IRAK4 (unknown origin)
Mus musculus [32] = assay: Toxicity in nu/nu mouse xenografted with human A2780 cells assessed as body weight loss at 10 mg/kg, po bid after 3 days; assay type: organism-based; settings: in vivo, 72 h
[33] = Intrinsic clearance in cryopreserved dog hepatocytes assessed per million cells; assay type: ADME, cell-based, Canis lupus familiaris, Hepatocyte; settings: read-out: CLH
[34] = AUC (0 to 24 hrs) in rat at 10 mg/kg, iv; assay type: ADME, organism-based; design: time < 24 hr, dose 10 mg/kg, route intravenous; settings: in vivo
A2780 [35] = assay: Antitumor activity against human A2780 cells xenografted in nu/nu mouse assessed as tumor growth inhibition at 10 mg/kg, po bid for 3 days; assay type: functional; settings: 72 h, read-out: TGI
HCT-116 = assay: Induction of endoreduplication in human HCT116 cells assessed as accumulation of >=4 N DNA preincubated for 24 hrs followed by compound washout by FACS analysis; assay type: functional
[36] = Oral bioavailability in rat at 30 mg/kg; assay type: ADME, organism-based; settings: in vivo
[37] = Oral bioavailability in monkey at 10 mg/kg; assay type: ADME, organism-based, Macaca mulatta; settings: rhesus monkey, in vivo
[38] = Intrinsic clearance in cryopreserved monkey hepatocytes assessed per million cells; assay type: ADME, cell-based, Macaca mulatta, Hepatocyte; settings: rhesus monkey, read-out: CLH
[39] = Half life in rat at 10 mg/kg, iv; assay type: ADME, organism-based; settings: in vivo
Mus musculus [40] = assay: Toxicity in nu/nu mouse xenografted with human A2780 cells assessed as death at 10 to 25 mg/kg, po after 3 days; assay type: organism-based; settings: in vivo, 72 h
[41] = Clearance in rat at 10 mg/kg, iv; assay type: ADME, organism-based; settings: in vivo
[42] = Intrinsic clearance in cryopreserved human hepatocytes assessed per million cells; assay type: ADME, cell-based, Hepatocyte; settings: read-out: CLH
Mus musculus [43] = assay: Toxicity in nu/nu mouse xenografted with human A2780 cells assessed as body weight loss at 25 mg/kg, po qd after 3 days; assay type: organism-based; settings: in vivo, 72 h
A2780 [44] = assay: Antitumor activity against human A2780 cells xenografted in nu/nu mouse assessed as tumor growth inhibition at 25 mg/kg, po qd for 3 days; assay type: functional; settings: 72 h, read-out: TGI
[45] = Intrinsic clearance in cryopreserved rat hepatocytes assessed per million cells; assay type: ADME, cell-based, Hepatocyte; settings: read-out: CLH
A2780 [46] = assay: Antitumor activity against human A2780 cells xenografted in nu/nu mouse assessed as tumor growth inhibition at 10 mg/kg, ip bid for 3 days; assay type: functional; settings: 72 h, read-out: TGI
Rattus norvegicus = assay: AUC (0 to 24 hrs) in rat at 30 mg/kg, po; assay type: ADME, organism-based; design: time < 24 hr, dose 30 mg/kg, route oral; settings: in vivo, 24 h

Sequence of Aurora kinase B (Q96GD4 whole entry): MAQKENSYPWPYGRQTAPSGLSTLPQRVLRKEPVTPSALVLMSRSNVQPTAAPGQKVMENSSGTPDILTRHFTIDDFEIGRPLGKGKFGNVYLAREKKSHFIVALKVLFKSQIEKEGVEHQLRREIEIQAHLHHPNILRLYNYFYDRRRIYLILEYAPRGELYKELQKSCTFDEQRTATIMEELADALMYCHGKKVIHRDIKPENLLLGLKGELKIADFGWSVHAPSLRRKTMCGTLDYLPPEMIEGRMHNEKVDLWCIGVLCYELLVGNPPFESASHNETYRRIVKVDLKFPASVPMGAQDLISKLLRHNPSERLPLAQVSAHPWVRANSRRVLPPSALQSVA
Sequence of Testis-specific serine/threonine-protein kinase 2 (Q96PF2 whole entry): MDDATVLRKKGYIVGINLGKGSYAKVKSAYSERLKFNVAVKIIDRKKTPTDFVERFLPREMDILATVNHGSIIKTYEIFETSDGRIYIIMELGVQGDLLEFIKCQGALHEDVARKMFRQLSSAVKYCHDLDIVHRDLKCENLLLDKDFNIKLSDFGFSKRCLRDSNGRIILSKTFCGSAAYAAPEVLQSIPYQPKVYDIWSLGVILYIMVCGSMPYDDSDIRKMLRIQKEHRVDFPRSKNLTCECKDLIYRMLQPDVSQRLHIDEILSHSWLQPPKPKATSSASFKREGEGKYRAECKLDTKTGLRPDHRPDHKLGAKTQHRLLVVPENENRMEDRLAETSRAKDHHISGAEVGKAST
Sequence of Serine/threonine-protein kinase Nek2 (P51955 whole entry): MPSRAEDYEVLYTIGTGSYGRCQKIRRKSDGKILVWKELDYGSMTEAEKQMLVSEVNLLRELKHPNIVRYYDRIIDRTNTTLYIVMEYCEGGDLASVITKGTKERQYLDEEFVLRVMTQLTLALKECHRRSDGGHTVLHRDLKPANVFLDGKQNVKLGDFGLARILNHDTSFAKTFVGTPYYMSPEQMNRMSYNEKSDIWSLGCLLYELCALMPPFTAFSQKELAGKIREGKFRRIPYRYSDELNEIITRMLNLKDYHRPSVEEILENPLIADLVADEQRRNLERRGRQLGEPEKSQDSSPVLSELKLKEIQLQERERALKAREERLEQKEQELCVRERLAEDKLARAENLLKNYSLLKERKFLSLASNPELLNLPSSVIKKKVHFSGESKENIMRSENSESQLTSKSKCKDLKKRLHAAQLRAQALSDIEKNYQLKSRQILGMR
Sequence of Cytochrome P450 2D6 (P10635 whole entry): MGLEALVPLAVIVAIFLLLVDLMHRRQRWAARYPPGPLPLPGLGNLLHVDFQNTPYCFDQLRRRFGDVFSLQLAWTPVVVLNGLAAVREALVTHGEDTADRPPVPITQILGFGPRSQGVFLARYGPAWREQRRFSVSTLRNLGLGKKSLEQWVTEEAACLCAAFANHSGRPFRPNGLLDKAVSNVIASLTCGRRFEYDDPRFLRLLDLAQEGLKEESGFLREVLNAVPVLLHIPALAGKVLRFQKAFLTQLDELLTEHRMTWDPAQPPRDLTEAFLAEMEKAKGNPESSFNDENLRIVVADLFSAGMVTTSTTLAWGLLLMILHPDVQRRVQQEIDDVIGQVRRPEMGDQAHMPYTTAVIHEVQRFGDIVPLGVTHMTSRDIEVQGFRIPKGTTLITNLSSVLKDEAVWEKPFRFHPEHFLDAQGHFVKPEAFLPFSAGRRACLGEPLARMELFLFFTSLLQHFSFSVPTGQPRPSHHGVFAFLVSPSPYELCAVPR
Sequence of Cytochrome P450 2C9 (P11712 whole entry): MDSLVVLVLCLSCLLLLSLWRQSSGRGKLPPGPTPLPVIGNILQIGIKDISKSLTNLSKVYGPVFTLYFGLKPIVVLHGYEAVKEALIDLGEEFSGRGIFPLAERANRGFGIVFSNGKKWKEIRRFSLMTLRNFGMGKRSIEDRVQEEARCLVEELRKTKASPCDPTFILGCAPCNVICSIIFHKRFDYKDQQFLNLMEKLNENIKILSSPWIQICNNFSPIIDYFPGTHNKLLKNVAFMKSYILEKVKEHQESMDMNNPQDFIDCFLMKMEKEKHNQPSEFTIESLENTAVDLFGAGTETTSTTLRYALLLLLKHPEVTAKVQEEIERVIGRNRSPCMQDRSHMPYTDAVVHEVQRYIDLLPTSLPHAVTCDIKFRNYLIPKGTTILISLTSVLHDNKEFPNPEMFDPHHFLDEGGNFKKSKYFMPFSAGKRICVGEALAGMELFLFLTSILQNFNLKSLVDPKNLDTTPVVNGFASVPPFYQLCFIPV
Sequence of Ribosomal protein S6 kinase alpha-3 (P51812 whole entry): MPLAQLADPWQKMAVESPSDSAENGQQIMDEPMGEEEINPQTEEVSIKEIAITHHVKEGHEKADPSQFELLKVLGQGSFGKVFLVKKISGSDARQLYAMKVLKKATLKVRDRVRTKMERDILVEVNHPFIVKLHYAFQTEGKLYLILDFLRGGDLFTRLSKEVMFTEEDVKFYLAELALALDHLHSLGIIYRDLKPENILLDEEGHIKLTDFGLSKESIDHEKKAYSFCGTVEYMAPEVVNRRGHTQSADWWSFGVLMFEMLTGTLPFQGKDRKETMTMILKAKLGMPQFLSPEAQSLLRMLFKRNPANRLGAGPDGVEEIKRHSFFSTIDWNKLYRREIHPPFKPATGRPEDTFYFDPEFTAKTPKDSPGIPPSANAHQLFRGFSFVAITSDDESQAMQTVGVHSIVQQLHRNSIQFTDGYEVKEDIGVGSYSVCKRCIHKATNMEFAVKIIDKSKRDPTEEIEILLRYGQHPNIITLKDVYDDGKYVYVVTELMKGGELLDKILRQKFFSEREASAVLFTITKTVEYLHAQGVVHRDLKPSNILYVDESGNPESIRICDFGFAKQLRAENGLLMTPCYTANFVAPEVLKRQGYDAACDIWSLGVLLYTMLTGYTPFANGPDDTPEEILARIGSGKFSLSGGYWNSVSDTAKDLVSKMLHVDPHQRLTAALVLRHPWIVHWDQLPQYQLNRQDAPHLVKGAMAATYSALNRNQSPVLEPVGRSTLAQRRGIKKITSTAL
Sequence of Interleukin-1 receptor-associated kinase 4 (Q9NWZ3 whole entry): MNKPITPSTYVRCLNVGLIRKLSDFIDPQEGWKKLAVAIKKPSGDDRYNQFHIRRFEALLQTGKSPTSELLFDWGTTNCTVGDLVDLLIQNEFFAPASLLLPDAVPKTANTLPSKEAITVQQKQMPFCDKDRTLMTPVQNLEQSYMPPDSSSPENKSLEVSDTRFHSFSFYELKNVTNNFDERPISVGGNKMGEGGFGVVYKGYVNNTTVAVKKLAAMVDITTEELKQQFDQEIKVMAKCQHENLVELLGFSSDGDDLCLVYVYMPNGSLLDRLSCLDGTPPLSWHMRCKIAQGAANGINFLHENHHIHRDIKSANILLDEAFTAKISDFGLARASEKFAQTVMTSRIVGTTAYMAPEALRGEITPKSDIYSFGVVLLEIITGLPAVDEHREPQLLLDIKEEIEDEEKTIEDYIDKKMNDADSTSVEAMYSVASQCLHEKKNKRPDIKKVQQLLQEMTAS
Sequence of Cytochrome P450 2C19 (P33261 whole entry): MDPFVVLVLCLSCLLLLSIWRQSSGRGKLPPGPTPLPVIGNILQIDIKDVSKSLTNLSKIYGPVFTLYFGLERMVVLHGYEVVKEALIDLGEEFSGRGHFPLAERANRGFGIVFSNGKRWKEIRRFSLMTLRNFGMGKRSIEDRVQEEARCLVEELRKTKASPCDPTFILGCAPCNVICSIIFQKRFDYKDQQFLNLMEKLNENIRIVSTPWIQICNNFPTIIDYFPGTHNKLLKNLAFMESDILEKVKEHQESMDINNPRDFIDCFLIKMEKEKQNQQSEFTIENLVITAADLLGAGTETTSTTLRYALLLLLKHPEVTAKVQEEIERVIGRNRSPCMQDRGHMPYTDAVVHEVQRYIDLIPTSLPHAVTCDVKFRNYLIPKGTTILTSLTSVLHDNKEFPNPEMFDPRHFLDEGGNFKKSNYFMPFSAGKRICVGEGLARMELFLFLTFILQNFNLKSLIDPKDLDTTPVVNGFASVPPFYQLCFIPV

Q: For `Cc1cn2c(-c3cn[nH]c3)cnc2c(Nc2cc(Cc3ccccn3)ns2)n1`, which fraction unbound [1] is on record?
A: 0.009

Q: And the half-life [2]?
A: 42 min

Q: What about the inhibition in vivo at 300 mg/kg (A2780 [3]) of the same compound?
A: 61%

Q: And the clearance [4]?
A: 118 mL/min/kg

Q: And the half-life [5]?
A: 48 min

Q: And the AUC(0-t) at 48 h [6]?
A: 1.7 µM·h

Q: And the fraction unbound [7]?
A: 0.028

Q: And the AUC(0-t) at 48 h [8]?
A: 9.2 µM·h

Q: And the Vd [9]?
A: 1 L/kg

Q: And the clearance [10]?
A: 15 mL/min/kg

Q: And the IC50 [11]?
A: 260 nM

Q: And the bioavailability [12]?
A: 15%

Q: And the IC50 [13]?
A: > 500 nM

Q: What about the Vd [14] of the same compound?
A: 0.7 L/kg

Q: What about the bioavailability [15] of the same compound?
A: 0%

Q: What about the bioavailability [16] of the same compound?
A: 77%

Q: And the half-life [17]?
A: 12 min

Q: What about the bioavailability [18] of the same compound?
A: 10%

Q: And the AUC(0-t) at 48 h [19]?
A: 4.1 µM·h

Q: And the AUC(0-t) at 48 h [20]?
A: 0.8 µM·h

Q: And the IC50 [21]?
A: > 500 nM

Q: And the clearance [22]?
A: 28 mL/min/kg

Q: What about the AUC(0-t) at 24 h [23] of the same compound?
A: 14.1 µM·h

Q: What about the IC50 (Cytochrome P450 2C19) of the same compound?
A: > 20 µM

Q: What about the solubility kinetic [24] of the same compound?
A: 20 µM (≈ 7.77 µg/mL)

Q: What about the AUC(0-t) at 6 h [25] of the same compound?
A: 17.7 µM·h

Q: What about the Kd (Aurora kinase A) of the same compound?
A: 0.01 nM

Q: And the Vd [26]?
A: 1.6 L/kg

Q: And the IC50 (Cytochrome P450 2C9)?
A: > 20 µM

Q: What about the AUC(0-t) at 24 h [27] of the same compound?
A: 1.1 µM·h

Q: And the IC50 (Cytochrome P450 2D6)?
A: > 20 µM

Q: What about the half-life [28] of the same compound?
A: 30 min

Q: And the AUC(0-t) at 48 h [29]?
A: 2.8 µM·h

Q: What about the Kd (Aurora kinase B) of the same compound?
A: 0.1 nM

Q: Which IC50 [11] does the source give for `CCN(CCO)Cc1cc(Nc2nc(C)cn3c(-c4cn[nH]c4)cnc23)sn1` here?
A: 180 nM

Q: And the IC50 [13]?
A: > 500 nM

Q: What about the IC50 [21] of the same compound?
A: > 500 nM

Q: Which results are given for `Cc1cn2c(-c3cn[nH]c3)cnc2c(Nc2cc(C(NC(C)(C)C)c3ccccn3)ns2)n1` (single isomer, unassigned; (+))?
A: fraction unbound [1]: 0.012; AUC(0-t) at 48 h [30]: 4 µM·h; IC50 [31]: 380 nM; clearance [4]: 50 mL/min/kg; half-life [5]: 276 min; Activity (Mus musculus [32]): 10%; hepatocyte CLint [33]: 5.1 µL/min/1e6 cells; AUC(0-t) at 48 h [6]: 5 µM·h; fraction unbound [7]: 0.028; AUC(0-t) at 48 h [8]: 3.9 µM·h; Vd [9]: 1.3 L/kg; bioavailability [12]: 86%; AUC(0-t) at 24 h [34]: 33 µM·h; inhibition in vivo at 10 mg/kg (A2780 [35]): 79%; Cmin (HCT-116): 6 nM; bioavailability [16]: 64%; half-life [17]: 108 min; bioavailability [36]: 40%; AUC(0-t) at 48 h [19]: 10.1 µM·h; clearance [22]: 7.4 mL/min/kg; bioavailability [37]: 8%; AUC(0-t) at 24 h [23]: 23.5 µM·h; hepatocyte CLint [38]: 27.6 µL/min/1e6 cells; half-life [39]: 156 min; Activity (Mus musculus [40]): Toxic; Kd (Aurora kinase A): 0.01 nM; Vd [26]: 5.3 L/kg; clearance [41]: 11 mL/min/kg; IC50 (Cytochrome P450 2C9): 6 µM; hepatocyte CLint [42]: 11.8 µL/min/1e6 cells; Activity (Mus musculus [43]): 10%; AUC(0-t) at 24 h [27]: 2.2 µM·h; IC50 (Cytochrome P450 2D6): 11.5 µM; inhibition in vivo at 25 mg/kg (A2780 [44]): 86%; hepatocyte CLint [45]: 11.5 µL/min/1e6 cells; half-life [28]: 132 min; inhibition in vivo at 10 mg/kg (A2780 [46]): 94%; AUC (Rattus norvegicus): 41 µM·h; Kd (Aurora kinase B): 0.01 nM
